Measured values as given in US7183302B2, “Iminothiazolidinones as inhibitors of HCV replication” (priority 2002, dated 2007).
pEC50: −log10 of the molar value. Where two headings read alike, the source gives them in different places.

How the values were obtained:
[1] = tested on: HCV 1b-377-neo replicon cells (Huh-7); assay: Alamar blue conversion (cellular toxicity, CC50), wild-type replicon cells; format: cell-based
[2] = tested on: Compound 1-r replicon cells (HCV 377-neo); assay: FRET assay on selected Compound 1-r replicon cells; format: cell-based; details: initial test
Protocol: HCV 377-neo replicon cells were plated in 100-mm plates with ˜25% confluence after 24 hr seeding. Compound 1 was added at the final concentrations of 5, 10 and 20 μM in the presence of G418. Wild type replicon cells in the absence of the compound were used as a control. After 5–6 weeks, both wt replicon cells and selected cells were tested for their sensitivity to Compound 1. In addition, cell lines derived from individual colonies from different concentrations of selective Compound 1 were also isolated, expanded and tested. In the initial test, approximately 60-fold resistance, judged by the FRET assay, was observed between wt replicon cells and selected replicon cells (designated as Compound 1-r replicon cells).

[3] = tested on: Y > H replicon cells (Huh-7); assay: Alamar blue CC50 on Y > H replicon cells
[4] = tested on: wild-type HCV 377-neo replicon in Huh-7 cells; assay: Colony formation under G418 selection, wild-type replicon RNA
[5] = tested on: wild-type Blast/Luciferase HCV replicon; format: cell-based, HCV 1b
[6] = tested on: Y2065C Blast/Luciferase HCV replicon; format: cell-based, HCV 1b
[7] = tested on: HCV replicon (HCV 1b-377-neo replicon cells); assay: HCV replicon cell line and FRET assay; format: cell-based; details: for pEC50: FRET assay
[8] = tested on: HCV replicon; assay: Western analysis of NS3 in replicon cells; format: cell-based
Protocol: EC50 values were also determined by Western analysis performed according to the instructions for Chemiluminescence Immunology Kit (Cat# NEL105) Amersham, Arlington Heights, Ill. using a Molecular Dynamics Storm 860 phosphoimager and associated software. Experiments were done in duplicate. The primary and secondary antibody dilutions were at 1 to 5,000. Antisera was generated by immunizing rabbits with purified NS3 protease made from an E. Coli expression vector encoding the first 181 amino acids of HCV 1a NS3 with subsequent boosts. Bleeds were tested weekly and boosts continued until a positive signal on a control western was seen. Secondary antibody was a BioRad (#170-6515) Goat anti-Rabbit IgG HRP Conjugate (Cat# 170-6515) BioRad, Hercules, Calif. The protein samples for western analysis were from the same wells used for the FRET assay and were prepared by the addition of an equal volume of 2×SDS-PAGE buffer to the FRET assay mixture, heating and loading on a 10% gel for SDS-PAGE. Interferon alpha (Cat# I-4276) Sigma, St. Louis, Mo. (IFN-α) was obtained and stored as recommended.

[9] = tested on: HCV replicon; assay: HCV RNA detection by RT-PCR in replicon cells
[10] = Hepatitis C virus, HCV replicon cell line, read-out: Replicon Inhibition Range EC50
[11] = HCV replicon cell line, read-out: Replicon Inhibition Range EC50

## C[C@H](NC(=O)OCc1ccccc1)C(=O)Nc1ccc(C2S/C(=N\c3cccc(F)c3)N(Cc3ccco3)C2=O)cc1 (stereo partly drawn) [Compound 1, (1S-(4-[2-(3-Fluorophenylimino)-3-furan-2-ylmethyl-4-oxo-thiazolidin-5-yl]-phenylcarbamoyl)ethyl)carbamic acid benzyl ester]
[1]
  CC50: > 5000 nM
[2]
  resistance between wt replicon cells and selected replicon cells: approximately 60 fold
[3]
  CC50: > 5000 nM
[4]; Wild-type RNA transfected, 2 μM Compound 1, 3 weeks G418 selection
  Number of colonies: 3
[4]; wild-type replicon RNA, 2 μM Compound 1
  reduction in colony number: 95%

## C[C@H](NC(=O)Cc1ccccc1)C(=O)Nc1ccc(C2S/C(=N\c3cccc(F)c3)N(Cc3ccco3)C2=O)cc1 (stereo partly drawn) [Compound 124, (N-{4-[2-(3-fluorophenylimino)-3-furan-2-ylmethyl-4-oxo-thiazolidin-5-yl]phenyl}-2S-(phenylacetylamino))propionamide]
[1]
  CC50: > 5000 nM
[5]; 0.5 μM Compound 124
  replication of the wild-type replicon: completely inhibited
[5]; wt clone, 0.5 μM 124, 48 h
  rlu 48 h: 3237 rlu
[5]; wt clone, 0.5 μM 124, 72 h
  rlu 72 h: 3184 rlu
[6]; Y2065C replicon, 0.5 μM Compound 124
  decrease in replication: 10–15%
[6]; Y > C clone, 0.5 μM 124, 48 h
  rlu 48 h: 7186 rlu
[6]; Y > C clone, 0.5 μM 124, 72 h
  rlu 72 h: 9696 rlu
[3]
  CC50: > 5000 nM

## O=C(Nc1ccc(C2S/C(=N\c3ccc(N4CCOCC4)cc3)N(Cc3cccnc3)C2=O)cc1)[C@@H]1CCCN1C(=O)OCc1ccccc1 (stereo partly shown) [Compound 94]
[7]; [10]
  pEC50: > 7.00

## O=C(Nc1ccc(C2S/C(=N\c3cccc(F)c3)N(Cc3ccco3)C2=O)cc1)[C@@H]1CCCN1C(=O)Cc1ccccc1 (stereo partly shown) [Compound 127]
[7]; [10]
  pEC50: > 7.00

## CC(C)(C)/N=C1\SC(c2ccc(NC(=O)[C@@H]3CCC(=O)N3C(=O)OCc3ccccc3)cc2)C(=O)N1Cc1ccccn1 (stereo partly shown) [Compound 90]
[7]; [10]
  pEC50: 6.00 to 7.00

## C[C@H](NC(=O)OCc1ccccc1)C(=O)Nc1ccc(C2S/C(=N\c3ccc(N4CCOCC4)cc3)N(c3ccccn3)C2=O)cc1 (stereo partly shown) [Compound 93]
[7]; [10]
  pEC50: 6.00 to 7.00

## C[C@H](NC(=O)OCc1ccccc1)C(=O)Nc1ccc(C2S/C(=N\c3ccc(C(F)(F)F)cc3)N(Cc3ccco3)C2=O)cc1 (stereo partly shown) [Compound 62]
[7]; [11]
  pEC50: 5.30 to 6.00

## C[C@H](NC(=O)OCc1ccccc1)C(=O)Nc1ccc(C2S/C(=N\c3ccc(N4CCOCC4)cc3)N(Cc3ccccn3)C2=O)cc1 (stereo partly shown) [Compound 80]
[7]; [11]
  pEC50: 6.00 to 7.00

## O=C(Nc1ccc(C2S/C(=N\c3cccc(Oc4ccccc4)c3)N(Cc3ccco3)C2=O)cc1)[C@@H]1CCCN1C(=O)OCc1ccccc1 (stereo partly shown) [Compound 34]
[7]; [10]
  pEC50: 6.00 to 7.00

## O=C(Nc1ccc(C2S/C(=N\c3ccc(N4CCOCC4)cc3)N(Cc3cccnc3)C2=O)cc1)[C@@H]1CCCN1C(=O)OCc1ccccc1 (stereo partly shown) [Compound 81]
[7]; [11]
  pEC50: 6.00 to 7.00
[7]; Hepatitis C virus, 72 h, read-out: EC50 in monotherapy
  pEC50: 7.96 to 8.05

## IFN-α
[7]; FRET
  EC50: 2.9 units of IFN-α per milliliter
[8]
  EC50: 1.9 units of IFN-α per milliliter
[9]
  EC50: 5.3 units of IFN-α per milliliter
